Experiments:
Format in all cases: biochemical
PAK1 = PAK1 (Homo sapiens, UniProt Q13153); assay: Z'Lyte fluorescence-based (FRET) kinase assay, PAK1; conditions: 50 μM ATP (Km apparent), 1 hr room temperature, 1% DMSO
Method: (§1) A fluorescence-based assay format is used to determine IC50 values of test compounds in vitro. Purified PAK kinase is incubated with ATP, and a test compound at various concentrations and a substrate peptide containing two fluorophores. In a second step, the reaction mix is incubated with a site-specific protease that cleaves non-phosphorylated but not phosphorylated substrate peptide, disrupting the FRET signal generated by the two fluorophores in the cleaved peptide (Z′Lyte™ Kinase assay platform; Life Technologies).
(§2) Reagents: 50 mM HEPES, pH 7.5; 0.01% BRIJ-35; 10 mM MgCl2; 1 mM EGTA, 2 uM substrate peptide Ser/Thr20 (proprietary Life Technologies Sequence), PAK enzyme [2.42-30.8 ng for PAK1, 0.29-6 ng for PAK2, 1.5-20 ng for PAK3 and 0.1-0.86 ng for PAK4; actual enzyme amounts depend on lot activity of the enzyme preparation]
(§3) Test compounds are dissolved in DMSO at various concentrations; the final DMSO concentration in the assay reaction is 1%.
(§4) ATP concentration at Km apparent is used in the assay [50 μM ATP for PAK1 assay, 75 μM ATP for PAK2 assay, 100 μM ATP for PAK3 assay, 5 μM ATP for PAK-4 assay] in a total assay volume of […] Assay reactions are incubated at room temperature for 1 hr. Following the kinase reaction, 5 μl of 1:256 dilution of development solution A (Life Technologies) is added and the reaction mix is incubated for an additional 1 hr at room temperature.
(§5) Plates are analyzed in a standard fluorescence plate reader (Tecan or equivalent) using an excitation wavelength of 400 nm and emission wavelengths of 445 nm and 520 nm. Inhibition of kinase reaction is determined by emission ratio=emission@445 nm/emission@520 nm

PAK2 = PAK2 (Homo sapiens, UniProt Q13177); assay: Z'Lyte fluorescence-based (FRET) kinase assay, PAK2; conditions: 75 μM ATP (Km apparent), 1 hr room temperature, 1% DMSO
Method: as §1, §2, §3, §4, §5

PAK4 = PAK4 (Homo sapiens, UniProt O96013); assay: Z'Lyte fluorescence-based (FRET) kinase assay, PAK4; conditions: 5 μM ATP (Km apparent), 1 hr room temperature, 1% DMSO
Method: as §1, §2, §3, §4, §5

PAK1, PAK2, PAK3, PAK-4 = assay: PAK isoform inhibition profile of example compounds; conditions: classification of example compounds in the description; underlying IC50 data in Table 8
From the text: In some embodiments, the PAK inhibitor is a Group I PAK inhibitor that inhibits, for example, one or more Group I PAK polypeptides, for example, PAK1, PAK2, and/or PAK3. […] In some embodiments, the PAK inhibitor is a PAK2 inhibitor. In some embodiments, the PAK inhibitor is a PAK3 inhibitor. In some embodiments, the PAK inhibitor is a mixed PAK1/PAK3 inhibitor. […] In some embodiments, the PAK inhibitor is a Group II PAK inhibitor that inhibits one or more Group II PAK polypeptides, for example PAK-4, PAK5, and/or PAK6. In some embodiments, the PAK inhibitor is a PAK4 inhibitor. In some embodiments, the PAK inhibitor is a PAK5 inhibitor. In some embodiments, the PAK inhibitor is a PAK6 inhibitor.
as §1, §2, §3, §4, §5

Sequence of PAK4 (O96013 whole entry): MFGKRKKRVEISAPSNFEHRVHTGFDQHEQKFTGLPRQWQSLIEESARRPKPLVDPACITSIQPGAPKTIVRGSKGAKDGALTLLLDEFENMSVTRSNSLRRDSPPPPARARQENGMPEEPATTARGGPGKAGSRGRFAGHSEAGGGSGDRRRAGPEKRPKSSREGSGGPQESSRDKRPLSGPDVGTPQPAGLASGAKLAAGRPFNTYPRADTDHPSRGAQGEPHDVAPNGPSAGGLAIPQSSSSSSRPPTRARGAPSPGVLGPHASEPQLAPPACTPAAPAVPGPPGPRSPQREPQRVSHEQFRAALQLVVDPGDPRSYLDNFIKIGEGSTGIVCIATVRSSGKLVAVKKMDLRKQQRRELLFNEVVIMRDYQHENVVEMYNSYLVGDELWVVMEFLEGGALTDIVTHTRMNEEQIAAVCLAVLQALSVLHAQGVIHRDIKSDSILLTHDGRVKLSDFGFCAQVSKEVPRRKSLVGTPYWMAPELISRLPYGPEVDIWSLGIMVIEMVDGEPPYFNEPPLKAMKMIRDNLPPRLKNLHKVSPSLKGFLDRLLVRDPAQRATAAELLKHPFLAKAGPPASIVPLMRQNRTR
Sequence of PAK2 (Q13177 whole entry): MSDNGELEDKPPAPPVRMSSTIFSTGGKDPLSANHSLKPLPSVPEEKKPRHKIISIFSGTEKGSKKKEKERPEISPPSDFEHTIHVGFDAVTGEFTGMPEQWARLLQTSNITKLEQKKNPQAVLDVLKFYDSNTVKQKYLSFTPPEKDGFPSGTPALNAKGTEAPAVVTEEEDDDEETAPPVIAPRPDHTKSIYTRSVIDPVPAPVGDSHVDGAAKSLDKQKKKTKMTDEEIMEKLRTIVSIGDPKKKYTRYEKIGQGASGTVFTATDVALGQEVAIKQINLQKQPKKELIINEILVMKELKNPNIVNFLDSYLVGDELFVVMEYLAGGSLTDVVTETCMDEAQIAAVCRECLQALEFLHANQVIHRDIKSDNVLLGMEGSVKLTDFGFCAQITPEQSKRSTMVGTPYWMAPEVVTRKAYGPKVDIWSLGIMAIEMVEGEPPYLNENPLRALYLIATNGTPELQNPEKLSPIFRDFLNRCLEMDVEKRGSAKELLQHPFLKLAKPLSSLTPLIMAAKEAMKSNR
Sequence of PAK1 (Q13153 whole entry): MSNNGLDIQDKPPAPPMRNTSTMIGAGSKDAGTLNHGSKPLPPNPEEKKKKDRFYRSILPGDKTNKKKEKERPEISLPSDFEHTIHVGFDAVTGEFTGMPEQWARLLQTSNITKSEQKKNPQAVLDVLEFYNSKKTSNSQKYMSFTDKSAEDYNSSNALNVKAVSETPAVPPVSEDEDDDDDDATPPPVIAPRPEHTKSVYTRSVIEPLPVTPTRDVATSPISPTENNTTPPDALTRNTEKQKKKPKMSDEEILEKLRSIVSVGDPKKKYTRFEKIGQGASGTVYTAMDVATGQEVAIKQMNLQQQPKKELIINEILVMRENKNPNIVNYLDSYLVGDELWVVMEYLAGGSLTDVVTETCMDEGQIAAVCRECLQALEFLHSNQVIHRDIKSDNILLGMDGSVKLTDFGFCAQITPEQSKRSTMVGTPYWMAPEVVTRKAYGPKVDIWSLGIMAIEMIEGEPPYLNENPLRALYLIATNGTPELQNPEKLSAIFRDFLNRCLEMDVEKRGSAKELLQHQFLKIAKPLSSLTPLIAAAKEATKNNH

| SMILES | IC50 (PAK1) [µM] | IC50 (PAK2) [µM] | IC50 (PAK4) [µM] | PAK inhibitor type (isoform profile) (PAK1, PAK2, PAK3, PAK-4) |
| --- | --- | --- | --- | --- |
| CN1CCN(c2ccc(Nc3nccc(-c4ccc(Cl)nc4)n3)cc2)CC1 [Compound 97] | 1 to 10 | > 10 | > 10 | – |
| CN1CCN(c2ccc(Nc3ncc4ccc(=O)n(CCc5ccccc5)c4n3)cc2)CC1 [Compound 51] | – | – | – | mixed PAK1/PAK2/PAK-4 inhibitor |
| CN1CCN(c2ccc(Nc3ncc4ccc(=O)n(C5CCc6ccccc65)c4n3)cc2)CC1 (stereo not drawn) [Compound 7] | – | – | – | PAK1 inhibitor |
| COc1ccc(F)cc1Cn1c(=O)ccc2cnc(Nc3ccc(N4CCN(C)CC4)cc3)nc21 [Compound 56] | – | – | – | PAK1 inhibitor |
| CCCNc1ccc(-c2ccnc(Nc3ccc(N4CCN(C)CC4)cc3)n2)cn1 [Compound 105] | 1 to 10 | 1 to 10 | 1 to 10 | – |
| CN1CCN(c2ccc(Nc3ncc4ccc(=O)n(Cc5ccccc5SC(F)(F)F)c4n3)cc2)CC1 [Compound 45] | – | – | – | mixed PAK1/PAK2/PAK3/PAK-4 inhibitor |
| CN(C)CCOc1ccc(-c2ccnc(Nc3ccc(N4CCN(C)CC4)cc3)n2)cn1 [Compound 102] | 1 to 10 | > 10 | > 10 | – |
| CN1CCN(c2ccc(Nc3ncc4ccc(=O)n(Cc5c(F)cccc5C(F)(F)F)c4n3)cc2)CC1 [Compound 60] | – | < 1 | – | mixed PAK1/PAK2/PAK3/PAK-4 inhibitor |
| Cc1cc(Nc2nccc(-c3ccc(NCCN)nc3)n2)ccc1N1CCN(C)CC1 [Compound 106] | – | 1 to 10 | – | mixed PAK1/PAK-4 inhibitor |
| CN1CCN(c2ccc(Nc3nccc(-c4ccc(NCCN5CCOCC5)nc4)n3)cc2)CC1 [Compound 99] | 1 to 10 | > 10 | 1 to 10 | – |
| CN1CCN(c2ccc(Nc3ncc4ccc(=O)n(Cc5cccc(Cl)c5)c4n3)cc2)CC1 [Compound 34] | 1 to 10 | > 10 | > 10 | – |
| CN1CCN(c2ccc(Nc3ncc4ccc(=O)n(Cc5ccccc5Cl)c4n3)cc2)CC1 [Compound 33] | – | – | – | mixed PAK1/PAK2 inhibitor |
| O=c1c(-c2ccccc2)cc2cnc(Nc3ccc(NC4CCCNC4)cc3)nc2n1Cc1ccccc1C(F)(F)F (stereo not drawn) [Compound 121] | – | – | – | inhibits all three Group I PAK isoforms (PAK1, 2 and PAK3) with equal or similar potency |
| O=c1ccc2cnc(Nc3ccc(OC4CCNCC4)cc3)nc2n1Cc1ccccc1C(F)(F)F [Compound 13] | – | – | – | mixed PAK1/PAK2/PAK3/PAK-4 inhibitor |
| O=c1ccc2cnc(Nc3ccc(OC4CCCNC4)cc3)nc2n1Cc1ccccc1C(F)(F)F (stereo not drawn) [Compound 15] | – | – | – | mixed PAK1/PAK2/PAK3/PAK-4 inhibitor |
| CN1CCN(CCNc2ccc(-c3ccnc(Nc4ccc(N5CCN(C)CC5)cc4)n3)cn2)CC1 [Compound 103] | 1 to 10 | > 10 | > 10 | – |
| CN1CCN(c2ccc(Nc3ncc4ccc(=O)n(Cc5ccccc5C(F)(F)F)c4n3)cc2)CC1 [Compound 44] | – | – | – | mixed PAK1/PAK2/PAK3/PAK-4 inhibitor |
| O=c1ccc2cnc(Nc3ccc(N4CCNCC4)c(F)c3)nc2n1C1CCc2ccccc2C1 (stereo not drawn) [Compound 23] | – | – | – | mixed PAK1/PAK2/PAK3/PAK-4 inhibitor |
| CN1CCN(c2ccc(Nc3ncc4ccc(=O)n(C5CCCC5)c4n3)cc2)CC1 [Compound 2] | – | – | – | PAK1 inhibitor |
| CSc1cccc(F)c1Cn1c(=O)ccc2cnc(Nc3ccc(N4CCN(C)CC4)cc3)nc21 [Compound 91, 8-(2-fluoro-6-(methylthio)benzyl)-2-(4-(4-methylpiperazin-1-yl)phenylamino)pyrido[2,3-d]pyrimidin-7(8H)-one] | – | < 1 | – | mixed PAK1/PAK2/PAK3/PAK-4 inhibitor |
| CN1CCN(c2ccc(Nc3nccc(-c4ccc(NCCCN)nc4)n3)cc2)CC1 [Compound 98] | < 1 | 1 to 10 | 1 to 10 | PAK1 inhibitor |

Source: patent US8674095B2, “Compounds for treating neuropsychiatric conditions” (Afraxis Holdings, Inc., priority 2008, dated 2014)
